Source: patent US20080004302A1, “Novel Compounds” (ASTRAZENECA AB, priority 2006, published 2008)

How the values were obtained:
[1] = target: FGFR1 kinase (Homo sapiens, UniProt P11362); test: Kinase assay (using Caliper technology); type: biochemical; settings: FGFR1 kinase, Caliper; upper bound of bin; read-out: IC50
Method: To determine inhibition of FGFR activity, kinase assays were conducted using Caliper technology.
Kinase activity assays were performed in Greiner 384-well low volume plates, with a total reaction volume of 12ul per well. […] The substrate for each assay was a custom peptide with fluorescent tag (13 amino acids in length) the sequence of which was specific for FGFR1 kinase.
Compounds were serially diluted in 5% (v/v) DMSO, before being added to assay plates.
Assay plates were incubated at room temperature for 1.5 h, before the reaction was stopped with the addition of buffer [comprising: 100 mM HEPES—pH7.5, 0.033% Brij-35, 0.22% Caliper Coating Reagent #3, 88mM EDTA, 5% DMSO]. Stopped assay plates were then read using the Caliper LabChip® LC3000 (which uses microfludics to measure a shift in mobility between fluorescent labelled peptide and the FGFR1 kinase—phosphorylated form of this peptide).

[2] = tested on: Erk phosphorylation; test: Growth factor (bFGF) stimulated Erk phosphorylation in NIH 3T3 cells; settings: Mus musculus, NIH3T3, NIH 3T3 cells, 3 ng/ml bFGF; upper bound of bin
Description: These and other assays were used to evaluate the ability of a test compound to inhibit growth factor stimulated cellular signalling in mammalian cell lines. This was achieved by measuring the amount of receptor tyrosine kinase regulated Erk phosphorylation within a cell following compound treatment.
NIH 3T3 (ECACC, 93061524) cells were routinely passaged in DMEM (Gibco BRL, 41966) plus 10% foetal calf serum (FCS), 1% L-glutamine (Gibco BRL, 25030) to a confluence not greater than 80%. To undertake the assay, NIH 3T3's were seeded at 1×10^4 cells/well in DMEM plus 10% foetal calf serum, 1% L-glutamine in 96 well plates (Costar, 3904) and incubated at 37° C. (+5% CO2) in a humidified incubator. Once the cells had fully adhered (typically following 4-5 hours incubation) the media was removed from each well and the cells gently washed with 100μl warm serum free media. 90μl of serum free DMEM plus 1% L-glutamine was then added to each well and the plates were returned to a humidified 37° C. (+5% CO2) incubator. The following day, the plates were dosed with 10[l compound (diluted from 10 mM stock in DMSO using serum free DMEM) and the plates were returned to a humidified 37° C. (+5% CO2) incubator for one hour. NIH 3T3 cells were then stimulated with a final concentration of 3 ng/ml bFGF (Sigma, F029 1) for 20 minutes at 37° C. Following stimulation the cells were fixed by adding formaldehyde (4% v/v final concentration) and incubating at room temperature for 20 minutes. The fixative solution was then removed and the wells were washed twice with 100μl phosphate buffered saline (PBS/A) before permeabilising the cells by the addition of 50 μl/well 0.1% triton/PBS/A for 10 minutes at room temperature. The permeabilisation solution was then removed and the cells washed twice more with 100 μl/well PBS/A before the addition of 50 μl/well anti-phospho p44/42 (Cell Signalling Technology, 9106), diluted 1/500 with PBS/A plus 10% FCS. The anti-phospho p44/42 antibody recognises Erk phosphorylated at threonine 202 and tyrosine 204. […] Finally, the plates were washed three times with 100 μl/well PBS/A, leaving the final wash in the wells before sealing the plates. The plates were read at 350 nm and 488 nm using an Arrayscan (Cellomics).

[3] = target: T1, human IGF1R (Homo sapiens, UniProt P08069); test: Inhibition of insulin-like growth factor-1 receptor phosphorylation in R+ cells; type: cell-based; settings: 30 nM IGF1, read-out: IGF cell class
T1 construct: expressed in transfected cells; host or cells: R+ cells (R- mouse fibroblasts transfected with human IGF1R)
Method: This immunofluorescence end point cell assay measures the ability of a test compound to reduce the measured levels of IGF1R phosphorylation after IGF1 stimulation in R^+ cells. […] were derived by transfection of R^− mouse fibroblast cells with human IGF1R.
(+5% CO2) incubator for 30 minutes.
Following the compound treatment, the R^+ cells were stimulated with a final concentration of 30 nM IGF1 (Gropep 1M001) for 20 minutes at 37° C. […] Plates were incubated for 1 hour at room temperature. […] Additionally, in-house antibodies raised against phospho […] were also used at a suitable titre determined for each batch.
The plates were incubated at room temperature for one hour. […] After addition of 100 μl/well PBS the plates were sealed with a black seal.
The Green Fluorescent phospho IGF1R -associated signal in each well was measured using an Acumen Explorer HTS Reader (TTP Labtech Ltd., Cambridge). […] The instrument is a laser-scanning fluorescence microplate cytometer, which samples the well at regular intervals and uses threshold algorithms to identify all fluorescent intensities above the solution background without the need to generate and analyse an image. These fluorescent objects can be quantified and provide a measure of the phospho IGF1R levels in cells. Fluorescence dose response data obtained with each compound was exported into a suitable software package (such as Origin) to perform curve fitting analysis. Phospho-IGF1R levels in response to compound treatment versus stimulated and unstimulated controls were expressed as an IC50 value.

[4] = target: T2, FGFR1 IIIc (Homo sapiens, UniProt P11362); test: Cell based inhibition of transiently expressed FGFR1 IIIc phosphorylation via use of ECHO technology (Cos-1 cells); settings: Cos-1 cells, phospho-FGFR1, ECHO dosing; upper bound of bin; read-out: IC50
T2 construct: host or cells: Cos-1
Method: This assay is designed to detect inhibitors of transiently expressed FGFR1 phosphorylation by antibody staining of fixed cells detected using ArrayScan technology.
To undertake the assay, Cos-1 cells were harvested at 90-95% confluence for cell transfection. For each 96-well plate, 24μl Lipofectamine 2000 was added to 809 ul OptiMEM and incubated at room temperature for 5 minutes. […] Equal volumes of DNA and Lipofectamine 2000 were combined (DNA: Lipid=1:1.2 ratio) and incubated at room temperature for 20 minutes.
The harvested Cos-1 cells are counted using a coulter counter and diluted further with 1% FCS/DMEM to 2.5×10^5 cells/ml. For each 96-well, 8.33 ml cells were required. […] 70 μl of media was aspirated from the assay plate using the Quadra before the plate was transferred onto the ECHO 550. […] Compound transfer to the assay plate on the ECHO 550 was at concentration ranges 1)10 μM, 2) 3 μM, 3) 1 μM, 4) 0.3 μM, 5) 0.1 μM, 6) […].
The plates were gently tapped to mix compound in with the cell media and left to incubate at 37° C. with 5% CO2 for 1 hour.
Media was removed from the wells using vacuum aspiration; cells were fixed by adding 50 μl of 100% methanol to each well and incubated at room temperature for 20 minutes.
The plates were read on an Arrayscan (Cellomics).

T2 sequence (P11362 22-822): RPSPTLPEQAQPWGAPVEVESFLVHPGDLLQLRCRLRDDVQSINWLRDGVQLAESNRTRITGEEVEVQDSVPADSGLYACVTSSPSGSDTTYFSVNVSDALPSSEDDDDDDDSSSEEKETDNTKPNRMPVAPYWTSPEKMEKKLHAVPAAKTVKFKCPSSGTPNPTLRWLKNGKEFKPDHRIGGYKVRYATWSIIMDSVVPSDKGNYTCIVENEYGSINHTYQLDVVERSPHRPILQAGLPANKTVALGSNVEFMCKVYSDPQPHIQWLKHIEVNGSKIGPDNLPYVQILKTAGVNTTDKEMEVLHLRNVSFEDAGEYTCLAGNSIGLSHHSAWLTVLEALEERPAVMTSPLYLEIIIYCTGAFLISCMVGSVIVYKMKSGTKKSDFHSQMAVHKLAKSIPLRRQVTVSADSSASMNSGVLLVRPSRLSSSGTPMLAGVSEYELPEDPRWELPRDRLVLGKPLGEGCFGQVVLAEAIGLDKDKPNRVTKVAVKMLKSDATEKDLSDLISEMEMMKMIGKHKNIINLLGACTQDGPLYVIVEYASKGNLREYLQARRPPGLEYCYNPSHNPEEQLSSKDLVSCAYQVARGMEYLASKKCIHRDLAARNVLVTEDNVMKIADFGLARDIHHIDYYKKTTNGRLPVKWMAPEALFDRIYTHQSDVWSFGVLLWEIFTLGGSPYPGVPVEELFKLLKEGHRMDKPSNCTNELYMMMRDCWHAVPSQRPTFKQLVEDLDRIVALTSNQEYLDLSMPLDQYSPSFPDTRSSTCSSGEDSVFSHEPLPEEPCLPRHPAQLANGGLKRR
Sequence of FGFR1 kinase (P11362 22-822): as above
T1 sequence (P08069 31-1367): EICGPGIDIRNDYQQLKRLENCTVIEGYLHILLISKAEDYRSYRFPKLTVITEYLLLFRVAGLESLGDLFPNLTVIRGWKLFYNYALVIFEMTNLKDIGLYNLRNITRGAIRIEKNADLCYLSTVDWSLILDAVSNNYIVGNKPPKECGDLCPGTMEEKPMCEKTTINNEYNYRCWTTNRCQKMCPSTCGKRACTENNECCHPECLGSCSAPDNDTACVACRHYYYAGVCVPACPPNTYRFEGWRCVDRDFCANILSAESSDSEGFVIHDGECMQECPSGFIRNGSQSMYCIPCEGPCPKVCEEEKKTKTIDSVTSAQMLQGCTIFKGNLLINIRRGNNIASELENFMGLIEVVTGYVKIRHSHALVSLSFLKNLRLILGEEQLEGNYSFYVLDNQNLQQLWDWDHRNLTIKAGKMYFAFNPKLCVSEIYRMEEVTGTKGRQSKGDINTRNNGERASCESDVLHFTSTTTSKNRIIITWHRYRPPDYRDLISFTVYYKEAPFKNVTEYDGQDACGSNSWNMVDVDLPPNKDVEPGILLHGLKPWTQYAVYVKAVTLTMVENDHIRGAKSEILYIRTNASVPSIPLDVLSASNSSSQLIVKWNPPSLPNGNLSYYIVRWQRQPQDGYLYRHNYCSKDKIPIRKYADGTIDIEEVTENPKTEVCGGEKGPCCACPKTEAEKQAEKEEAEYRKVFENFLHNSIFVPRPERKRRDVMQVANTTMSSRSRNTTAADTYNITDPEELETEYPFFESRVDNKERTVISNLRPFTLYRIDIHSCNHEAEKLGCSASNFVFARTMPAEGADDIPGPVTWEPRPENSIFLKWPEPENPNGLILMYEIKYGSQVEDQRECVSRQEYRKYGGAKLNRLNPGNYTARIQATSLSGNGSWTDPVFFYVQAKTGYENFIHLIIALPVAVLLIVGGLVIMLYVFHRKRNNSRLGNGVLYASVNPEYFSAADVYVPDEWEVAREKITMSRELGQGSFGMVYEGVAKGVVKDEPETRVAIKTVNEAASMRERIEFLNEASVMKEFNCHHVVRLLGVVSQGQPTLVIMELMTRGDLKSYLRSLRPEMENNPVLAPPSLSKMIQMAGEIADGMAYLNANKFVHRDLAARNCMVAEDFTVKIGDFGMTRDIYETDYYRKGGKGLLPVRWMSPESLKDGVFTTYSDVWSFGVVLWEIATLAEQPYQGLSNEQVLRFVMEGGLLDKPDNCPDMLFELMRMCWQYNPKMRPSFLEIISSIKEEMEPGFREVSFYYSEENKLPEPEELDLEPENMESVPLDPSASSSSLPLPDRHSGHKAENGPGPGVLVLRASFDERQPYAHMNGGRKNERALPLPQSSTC

`COCCCc1cc(Nc2ccnc(NCc3cc(C4CCC4)no3)n2)n[nH]1` [Example 23, N-[(3-Cyclobutyl1,2-oxazol-5-yl)methyl]-N′-[5-(3-methoxypropyl)-1H-pyrazol-3-yl]pyrimidine-2,4-diamine] was tested. Which IC50 [1] did it give?
The IC50 was less than 1 µM.

And the IC50 [2]?
Its IC50 is less than 1 µM.

Which results are given for `COc1ccc(CCc2cc(Nc3ccnc(NCc4cc(-c5ncccn5)no4)n3)n[nH]2)cc1` [Example 32, N′-[5-[2-(4-methoxyphenyl)ethyl]-2H-pyrazol-3-yl]-N-[(3-pyrimidin-2-yl-1,2-oxazol-5-yl)methyl]pyrimidine-2,4-diamine]?
IC50 [3]: 1 to 10 µM; IC50 [1]: < 1 µM; IC50 [4]: < 1 µM

With `c1ccc(OCc2cc(Nc3ccnc(NCc4cc(C5CC5)no4)n3)[nH]n2)cc1` [Example 35, N-[(3-cyclopropyl1,2-oxazol-5-yl)methyl]-N′-[5-(phenoxymethyl)-2H-pyrazol-3-yl]pyrimidine-2,4-diamine] as the molecule, how does the IC50 [3] read?
Its IC50 is greater than 10 µM.

And the IC50 [1]?
Its IC50 is less than 10 µM.

And the IC50 [2]?
Its IC50 is less than 1 µM.

Which IC50 [3] does the source give for `NC(=O)c1cc(CNc2nccc(Nc3cc(COc4ccccc4)n[nH]3)n2)on1` [Example 36, 5-[[[4-[[5-(phenoxymethyl)-2H-pyrazol-3-yl]amino]pyrimidin-2-yl]amino]methyl]1,2-oxazole-3-carboxamide] here?
Its IC50 is greater than 10 µM.

What about the IC50 [1] of the same molecule?
Its IC50 is less than 10 µM.

What about the IC50 [4] of the same molecule?
The IC50 was less than 30 µM.

Which IC50 [3] does the source give for `Cc1cc(CNc2nccc(Nc3cc(CCc4ccc(OCc5ccccc5)cc4)[nH]n3)n2)on1` [Example 37, N-[(3-methyl1,2-oxazol-5-yl)methyl]-N′-[5-[2-(4-phenylmethoxyphenyl)ethyl]-2H-pyrazol-3-yl]pyrimidine-2,4-diamine] here?
Its IC50 is 1 to 10 µM.

And the IC50 [1]?
The IC50 was less than 30 µM.

And the IC50 [2]?
Its IC50 is less than 10 µM.

Which results are given for `NC(=O)c1cc(CNc2nccc(Nc3cc(CCc4ccccc4)n[nH]3)n2)on1` [Example 50, 5-[[[4-[(5-phenethyl-2H-pyrazol-3-yl)amino]pyrimidin-2-yl]amino]methyl]-1,2-oxazole-3-carboxamide]?
IC50 [3]: > 10 µM; IC50 [1]: < 1 µM; IC50 [4]: < 10 µM

For `Cc1cc(CNc2nccc(Nc3cc(CCc4cccc(N5CCOCC5)c4)[nH]n3)n2)on1` [Example 55, N-[(3-methyl1,2-oxazol-5-yl)methyl]-N′-[5-[2-(3-morpholin-4-ylphenyl)ethyl]-1H-pyrazol-3-yl]pyrimidine-2,4-diamine], which IC50 [3] is on record?
The IC50 was greater than 10 µM.

And the IC50 [1]?
The IC50 was less than 10 µM.

What about the IC50 [2] of the same molecule?
Its IC50 is less than 10 µM.

What does the source list for `CCc1cccc(COc2cc(Nc3ccnc(NCc4cc(C)no4)n3)n[nH]2)c1` [Example 74, N′-[5-[(3-ethylphenyl)methoxy]-2H-pyrazol-3-yl]-N-[(3-methyl1,2-oxazol-5-yl)methyl]pyrimidine-2,4-diamine]?
IC50 [3]: > 10 µM; IC50 [1]: < 10 µM; IC50 [2]: < 1 µM

What does the source list for `COCC(C)Oc1cc(Nc2ccnc(NCc3cc(C4CC4)no3)n2)n[nH]1` (centres unmarked) [Example 76, N-[(3-cyclopropyl-1,2-oxazol-5-yl)methyl]-N′-[5-(1-methoxypropan-2-yloxy)-1H-pyrazol-3-yl]pyrimidine-2,4-diamine]?
IC50 [3]: > 10 µM; IC50 [2]: < 1 µM

`CCOC(=O)c1cc(CNc2nccc(Nc3cc(OC(C)C)n[nH]3)n2)on1` [Example 77, Ethyl 5-[[[4-[(5-propan-2-yloxy-2H-pyrazol-3-yl)amino]pyrimidin-2-yl]amino]methyl]1,2-oxazole-3-carboxylate] was tested. Which IC50 [2] did it give?
The IC50 was less than 1 µM.

With `CC(C)Oc1cc(Nc2ccnc(NCc3cc(C(=O)N(C)C)no3)n2)[nH]n1` [Example 80, N,N-dimethyl-5-[[[4-[(5-propan-2-yloxy-2H-pyrazol-3-yl)amino]pyrimidin-2-yl]amino]methyl]1,2-oxazole-3-carboxamide] as the molecule, how does the IC50 [1] read?
The IC50 was less than 1 µM.

And the IC50 [2]?
The IC50 was less than 10 µM.

Which results are given for `CC(C)Oc1cc(Nc2ccnc(NCc3cc(-c4cncnc4)no3)n2)n[nH]1` [Example 81, N′-(5-propan-2-yloxy-2H-pyrazol-3-yl)-N-[(3-pyrimidin-5-yl1,2-oxazol-5-yl)methyl]pyrimidine-2,4-diamine]?
IC50 [1]: < 10 µM; IC50 [2]: < 10 µM

What does the source list for `CC(C)Oc1cc(Nc2ccnc(NCc3cc(C4CCOC4)no3)n2)[nH]n1` (centres unmarked) [Example 83, N-[[3-(oxolan-3-yl)1,2-oxazol-5-yl]methyl]-N′-(5-propan-2-yloxy-2H-pyrazol-3-yl)pyrimidine-2,4-diamine]?
IC50 [1]: < 1 µM; IC50 [2]: < 10 µM

With `CC(C)Oc1cc(Nc2ccnc(NCc3cc(C4CCOCC4)no3)n2)[nH]n1` [Example 85, N-[[3-(oxan-4-yl)1,2-oxazol-5-yl]methyl]-N′-(5-propan-2-yloxy-2H-pyrazol-3-yl)pyrimidine-2,4-diamine] as the molecule, how does the IC50 [1] read?
Its IC50 is less than 10 µM.

What about the IC50 [2] of the same molecule?
Its IC50 is less than 10 µM.

What does the source list for `CCOc1cc(Nc2ccnc(NCc3cc(C)no3)n2)n[nH]1` [Example 86, N′-(5-ethoxy-1H-pyrazol-3-yl)-N-[(3-methyl1,2-oxazol-5-yl)methyl]pyrimidine-2,4-diamine]?
IC50 [1]: < 0.2 µM; IC50 [2]: < 1 µM

How did the IC50 [3] turn out when `Cc1cc(CNc2nccc(Nc3cc(OCc4cccc(N5CCOCC5)c4)[nH]n3)n2)on1` [Example 87, N-[(3-methyl1,2-oxazol-5-yl)methyl]-N′-[5-[(3-morpholin-4-ylphenyl)methoxy]-2H-pyrazol-3-yl]pyrimidine-2,4-diamine] was run?
The IC50 was greater than 10 µM.

And the IC50 [1]?
Its IC50 is less than 10 µM.

What about the IC50 [2] of the same molecule?
Its IC50 is less than 10 µM.

With `Cc1cc(CNc2nccc(Nc3cc(OCc4cccc(NC(=O)OC(C)(C)C)c4)[nH]n3)n2)on1` [Example 89, tert-Butyl N-[3-[[5-[[2-[(3-methyl1,2-oxazol-5-yl)methylamino]pyrimidin-4-yl]amino]-1H-pyrazol-3-yl]oxymethyl]phenyl]carbamate] as the molecule, how does the IC50 [3] read?
Its IC50 is 1 to 10 µM.

What about the IC50 [1] of the same molecule?
Its IC50 is less than 1 µM.

What about the IC50 [2] of the same molecule?
The IC50 was less than 1 µM.

What does the source list for `Cc1cc(CNc2nccc(Nc3cc(OCc4cccc(C(=O)O)c4)[nH]n3)n2)on1` [Example 98, 3-[[5-[[2-[(3-methyl1,2-oxazol-5-yl)methylamino]pyrimidin-4-yl]amino]-1H-pyrazol-3-yl]oxymethyl]benzoic acid]?
IC50 [1]: < 10 µM; IC50 [2]: < 10 µM

Which results are given for `Cc1cc(CNc2nccc(Nc3cc(OCCOc4ccccc4)[nH]n3)n2)on1` [Example 101, N-[(3-methyl1,2-oxazol-5-yl)methyl]-N′-[5-(2-phenoxyethoxy)-2H-pyrazol-3-yl]pyrimidine-2,4-diamine]?
IC50 [3]: > 10 µM; IC50 [1]: < 1 µM; IC50 [4]: < 1 µM

`NC(=O)c1cc(CNc2nccc(Nc3cc(CCc4ccco4)n[nH]3)n2)on1` [Example 112, 5-[[[4-[[5-[2-(2-furyl)ethyl]-2H-pyrazol-3-yl]amino]pyrimidin-2-yl]amino]methyl]1,2-oxazole-3-carboxamide] was tested. Which IC50 [1] did it give?
The IC50 was less than 0.2 µM.

What about the IC50 [2] of the same molecule?
The IC50 was less than 10 µM.

What does the source list for `CNC(=O)c1cc(C)cc(CCc2cc(Nc3ccnc(NCc4cc(C)no4)n3)n[nH]2)c1` [Example 142, N,3-dimethyl-5-[2-[5-[[2-[(3-methyl-1,2-oxazol-5-yl)methylamino]pyrimidin-4-yl]amino]-1H-pyrazol-3-yl]ethyl]benzamide]?
IC50 [1]: < 30 µM; IC50 [4]: < 10 µM

Which IC50 [1] does the source give for `CNC(=O)c1cc(OC)cc(CCc2cc(Nc3ccnc(NCc4cc(C)no4)n3)n[nH]2)n1` [Example 143, 4-Methoxy-N-methyl-6-[2-[5-[[2-[(3-methyl-1,2-oxazol-5-yl)methylamino]pyrimidin-4-yl]amino]-1H-pyrazol-3-yl]ethyl]pyridine-2-carboxamide] here?
Its IC50 is less than 10 µM.

And the IC50 [4]?
Its IC50 is less than 30 µM.
